Consider two molecules from ChEMBL document CHEMBL4699511, “Cedrol, a Sesquiterpene Alcohol, Enhances the Anticancer Efficacy of Temozolomide in Attenuating Drug Resistance via Regulation of the DNA Damage Response and MGMT Expression” (J Nat Prod, 2020).

The source made the active and inactive calls. The calls are words filed in the database; no cut-off is given here.

Data set [1] has as its system DBTRG-05MG. Description: Induction of cell cycle arrest in human DBTRG-05MG cells assessed as accumulation at G2/M phase at 206 uM after 24 hrs by propidium iodide staining based flow cytometric analysis (reference value: 30.08 +/- 0.1%). The format is functional.
For data set [2], the system named is RG2. Description: Induction of cell cycle arrest in rat RG2 cells assessed as accumulation at G2/M phase at 206 uM after 6 hrs by propidium iodide staining based flow cytometric analysis (reference value: 20.04 +/- 0.55%). The format is functional. A general note: Flow cytometry measures light scatter and fluorescence of single cells or particles in a stream.

Data set [3] concerns RG2. Put plainly: Induction of cell cycle arrest in rat RG2 cells assessed as accumulation at S phase at 206 uM after 24 hrs by propidium iodide staining based flow cytometric analysis (reference value: 20.15 +/- 2.44%). Format: functional.
Data set [4] concerns DBTRG-05MG. Put plainly: Induction of cell cycle arrest in human DBTRG-05MG cells assessed as CyclinA expression at 206 uM after 48 hrs by Western blot analysis (reference value: 1). Format: functional. In general terms: Immunoblotting shows a protein as a band on a membrane.
The test system of data set [5] is RG2. Description: Induction of cell cycle arrest in rat RG2 cells assessed as CDK2 expression at 206 uM after 48 hrs by Western blot analysis (reference value: 1). The format is functional.
Data set [6] can be described thus: Effect on AKT expression in human DBTRG-05MG cells at 206 uM after 48 hrs by Western blot analysis (reference value: 1). The format is functional.
The test system of data set [7] is RG2. Put plainly: Inhibition of AKT phosphorylation at S473 residues in rat RG2 cells at 206 uM after 48 hrs by Western blot analysis. The format is cell-based.
The subject of data set [8] is RG2. Put plainly: Inhibition of ERK phosphorylation at Tyr204 residues in rat RG2 cells at 206 uM after 48 hrs by Western blot analysis (reference value: 1). The format is cell-based.
The subject of data set [9] is DBTRG-05MG. Description: Induction of apoptosis in human DBTRG-05MG cells assessed as increase in DNA fragmentation at 206 uM after 48 hrs by TUNEL assay. The format is functional, cell-based.
Data set [10] concerns DBTRG-05MG. Description: Induction of apoptosis in human DBTRG-05MG cells assessed as cleaved caspace-9 expression at 206 uM after 48 hrs by Western blot analysis (reference value: 1). Format: functional.
The test system of data set [11] is DBTRG-05MG. Description: Induction of DNA damage in human DBTRG-05MG cells assessed as Chk2 phosphorylation at Thr68 residues at 206 uM after 48 hrs by Western blot analysis (reference value: 1). Format: functional.
Data set [12] relates to DBTRG-05MG. Put plainly: Synergistic cytotoxicity against human DBTRG-05MG cells assessed as combination index at 134.9 uM after 48 hrs in presence of 309 uM TMZ by MTT assay. Format: functional.
The test system of data set [13] is RG2. Description: Synergistic cytotoxicity against rat RG2 cells assessed as synergistic effect index at 112.4 uM after 48 hrs in presence of 103 uM TMZ by MTT assay. Format: functional. Background: Tetrazolium dyes change colour on reduction, which living cells bring about.
Data set [14] concerns RG2. Description: Synergistic cytotoxicity against rat RG2 cells assessed as synergistic effect index at 112.4 uM after 48 hrs in presence of 412.1 uM TMZ by MTT assay. Format: functional.
Data set [15] has as its system RG2. Description: Synergistic cytotoxicity against rat RG2 cells assessed as synergistic effect index at 134.9 uM after 48 hrs in presence of 309 uM TMZ by MTT assay. The format is functional.
Data set [16] relates to RG2. Description: Synergistic cytotoxicity against rat RG2 cells assessed as combination index at 134.9 uM after 48 hrs in presence of 206 uM TMZ by MTT assay. Format: functional.
The subject of data set [17] is RG2. Put plainly: Synergistic cytotoxicity against rat RG2 cells assessed as combination index at 134.9 uM after 48 hrs in presence of 515.1 uM TMZ by MTT assay. The format is functional.
Data set [18] is described as follows: Synergistic cytotoxicity against rat CTX TNA2 cells assessed as synergistic effect index at 112.4 uM after 48 hrs in presence of 412.1 uM TMZ by MTT assay. Format: cell-based. Conditions: ctx tna2, 48 h.
Data set [19] has as its system DBTRG-05MG. Description: Induction of cell cycle arrest in human DBTRG-05MG cells assessed as accumulation at G0/G1 phase at 112.4 uM after 48 hrs in presence of TMZ by propidium iodide staining based flow cytometric analysis (reference value: 47.16 +/- 1.55%). Format: functional.
Data set [20] deals with DBTRG-05MG. Description: Induction of cell cycle arrest in human DBTRG-05MG cells assessed as accumulation at S phase at 112.4 uM after 48 hrs in presence of TMZ by propidium iodide staining based flow cytometric analysis (reference value: 22.76 +/- 1.56%). Format: functional.
Data set [21] deals with RG2. Description: Induction of cell cycle arrest in rat RG2 cells assessed as accumulation at S phase at 112.4 uM after 6 hrs in presence of TMZ by propidium iodide staining based flow cytometric analysis (reference value: 20.15 +/- 2.44%). The format is functional.
For data set [22], the system named is RG2. Description: Induction of cell cycle arrest in rat RG2 cells assessed as accumulation at S phase at 112.4 uM after 12 hrs by propidium iodide staining based flow cytometric analysis (reference value: 20.15 +/- 2.44%). Format: functional.
For data set [23], the system named is RG2. Put plainly: Induction of cell cycle arrest in rat RG2 cells assessed as accumulation at G2/M phase at 112.4 uM after 48 hrs in presence of TMZ by propidium iodide staining based flow cytometric analysis (reference value: 20.04 +/- 0.55%). The format is functional.
Data set [24] relates to DBTRG-05MG. Description: Induction of cell cycle arrest in human DBTRG-05MG cells assessed as CyclinA expression at 112.4 uM after 48 hrs by Western blot analysis (reference value: 1). Format: functional.
Data set [25] concerns DBTRG-05MG. Put plainly: Induction of cell cycle arrest in human DBTRG-05MG cells assessed as CyclinB1 expression at 112.4 uM after 48 hrs by Western blot analysis (reference value: 1). The format is functional.
Data set [26] relates to DBTRG-05MG. Put plainly: Induction of cell cycle arrest in human DBTRG-05MG cells assessed as p53 expression at 112.4 uM after 48 hrs in presence of TMZ by Western blot analysis (reference value: 1). Format: functional.
Data set [27] concerns RG2. Put plainly: Induction of cell cycle arrest in rat RG2 cells assessed as CyclinD1 expression at 112.4 uM after 48 hrs by Western blot analysis (reference value: 1). Format: functional.
The subject of data set [28] is RG2. Put plainly: Induction of cell cycle arrest in rat RG2 cells assessed as CDK2 expression at 112.4uM after 48 hrs by Western blot analysis (reference value: 1). The format is functional.
The subject of data set [29] is RG2. Description: Induction of cell cycle arrest in rat RG2 cells assessed as CyclinB1 expression at 112.4 uM after 48 hrs by Western blot analysis (reference value: 1). The format is functional.
Data set [30] in a line: Effect on AKT expression in rat RG2 cells at 112.4uM after 48 hrs by Western blot analysis (reference value: 1). The format is functional.
The nature of data set [31]: Effect on JNK expression in rat RG2 cells at 112.4uM after 48 hrs by Western blot analysis (reference value: 1). Format: functional.
Data set [32] relates to RG2. Put plainly: Inhibition of ERK phosphorylation at Tyr204 residues in rat RG2 cells at 112.4uM after 48 hrs in presence of TMZ by Western blot analysis (reference value: 1). Format: cell-based.
Data set [33] deals with RG2. Put plainly: Induction of apoptosis in rat RG2 cells assessed as increase in chromatin condensation at 112.4 uM after 48 hrs by TUNEL assay. The format is functional, cell-based.
In data set [34] the test system is DBTRG-05MG. Put plainly: Induction of DNA damage in human DBTRG-05MG cells at 112.4 uM after 48 hrs in presence of TMZ by p.H2A.X staining based fluorescent immunocytochemistry method. Format: functional, cell-based.
The nature of data set [35]: Effect of MDR1 expression in rat RG2 cells at 112.4 uM after 48 hrs by Western blot analysis. Format: functional.

In the case of `Cn1nnc2c(C(N)=O)ncn2c1=O` [TEMOZOLOMIDE], the results for the Activity with DBTRG-05MG [1], in the data set on RG2 [2] and with RG2 [3] were 43.53%, 20.81% and 15.48%, respectively. Further, the “fold change (FC)” value is 1.9 in the data set on DBTRG-05MG [4]; 0.9 in the data set with RG2 [5]; 1 in data set [6]; 0.5 with RG2 [7]; 0.7 with RG2 [8]; 1.8 with DBTRG-05MG [10]. Further, in the data set on DBTRG-05MG [11], the “fold change (FC)” value is 2. Also, the result in the data set on DBTRG-05MG [9] was Active.
`C[C@@H]1CC[C@H]2C(C)(C)[C@H]3C[C@@]12CC[C@@]3(C)O` [CEDROL]: the CI is 0.61 in the data set on DBTRG-05MG [12], 0.84 with RG2 [16] and 1.02 in the data set on RG2 [17]. Moreover, the Activity_index came to 0.83 with RG2 [13], 0.84 with RG2 [14], 0.89 in the data set on RG2 [15] and 0.58 in [18]. The Activity was 41.16% with DBTRG-05MG [19]; 20.58% with DBTRG-05MG [20]; 19.02% with RG2 [21]; 16.92% in the data set with RG2 [22]; 35.71% with RG2 [23]. Also, the “fold change (FC)” value was 0.6 with DBTRG-05MG [24]; 0.5 in the data set with DBTRG-05MG [25]; 2.2 with DBTRG-05MG [26]; 1.4 with RG2 [27]; 0.7 in the data set on RG2 [28]; 0.5 with RG2 [29]. For the same molecule, the “fold change (FC)” value worked out at 0.6 in data set [30], 0.8 in [31], 0.3 in the data set with RG2 [32] and 2.1 in data set [35]. Further, the outcome with RG2 [33] and in the data set on DBTRG-05MG [34] was Active.
